Measured values: patent publication US20230132366A9, “METHODS FOR TREATING DYSREGULATED LIPID METABOLISM” (DENALI THERAPEUTICS INC., priority 2018, published 2023)

Test system: Trem2 KO BMDMs
Assay: In vitro lipid storage assay, Nile Red staining, BMDM treated with myelin
Format: cell-based, mouse
Method: Mouse femur and tibia bones were dissected and briefly sterilized with 70% ethanol. The bones were washed twice with HBSS, then cracked in 10 mL HBSS by mortar and pestle. The cell suspension was filtered through a 70 μm cell strainer, spun at 300×g for 5 min, and supernatant was discarded. The cell pellet was resuspended in ACK Lysing Buffer (Thermo Fisher A1049201) for 4 min at room temperature. 10 mL RPMI-1640 (Thermo Fisher)+10% Hyclone FBS (GE Healthcare)+ Penicillin-Streptomycin (Thermo Fisher) was added to stop ACK lysis, then spun 300×g 5 min, and supernatant was discarded. Cells were resuspended in RPMI culture media with 50 ng/mL murine M-CSF (Life Technologies, PMC2044), counted and diluted to 1×10^6 cells/mL, then plated on non-tissue culture treated petri dishes. Three days after seeding, fresh murine M-CSF (50 ng/mL) was added. Five days after seeding, cell culture media was aspirated and cells were washed once with PBS. Cells were resuspended in RPMI/FBS/Pen-Strep and harvested with a cell scraper. […]
For LC-MS, cells were extracted according to the protocol below. […] Lipid and filipin spots were analyzed using a spot-finding algorithm on the Harmony software supplied with the instrument. […] Cells were imaged at 63× resolution and Nile Red was quantified as total spot area (FIG. 5B) using a spot-finding algorithm on the Harmony software. […]

Compound | neutral lipid accumulation (Nile Red) (myelin debris 25 ug/mL 48 h, co-treatment 10 uM) | neutral lipid accumulation (Nile Red, total spot area) (myelin 25 ug/mL 24 h, then APOE3 10 ug/mL 24 h)
C=C(c1ccc(C(=O)O)cc1)c1cc2c(cc1C)C(C)(C)CCC2(C)C [bexarotene] | reduced | –
APOE3: recombinant human APOE3 added into the culture media | – | improved
